Entries after “also recorded” stand apart in the source; their conditions may differ. Peptide text beside a SMILES is read from it.
Tests used:
[1] = tested on: PMA-induced dermatitis (ear); assay: PMA-induced dermatitis, intraperitoneal injection; type: in vivo, CD-1 mice; details: intraperitoneal injection (0.1-1 mg/kg/day)
Method: FIG. 12 is a series of images and graphs showing the effect of intraperitoneal injection of the 2309 peptide on PMA-induced dermatitis. On day 1, 10 μl of a 0.01% solution of PMA (v/v in acetone) was applied on the external and internal surfaces of the left ear of CD-1 mice (images in left column). Twenty-four hours later, different doses of the 2309 peptide were injected intraperitoneally (0.1 mg/kg/day; 0.5 mg/kg/day; 1 mg/kg/day bid; n=4 for each group treatment). Animals were sacrificed on day 4 (6 hours after the last 2309 injection). The weight (right column, top graph) and thickness (right column, bottom graph) of all ear punches were then determined and the peptide-treated ears with PMA were compared to PMA-only ears.

[2] = molecular target: T1, IL-23 receptor (Homo sapiens, UniProt Q5VWK5); assay: IL-23-induced STAT3 phosphorylation in PMA-activated HL-60 monocytes (Western blot); type: cell-based; set-up: endogenous in cells; details: PMA-activated HL-60 human monocytes; peptide 1 μM, 30 min pre-incubation; IL-23 10 ng/ml, 15 min
T1 sequence (Q5VWK5 24-629): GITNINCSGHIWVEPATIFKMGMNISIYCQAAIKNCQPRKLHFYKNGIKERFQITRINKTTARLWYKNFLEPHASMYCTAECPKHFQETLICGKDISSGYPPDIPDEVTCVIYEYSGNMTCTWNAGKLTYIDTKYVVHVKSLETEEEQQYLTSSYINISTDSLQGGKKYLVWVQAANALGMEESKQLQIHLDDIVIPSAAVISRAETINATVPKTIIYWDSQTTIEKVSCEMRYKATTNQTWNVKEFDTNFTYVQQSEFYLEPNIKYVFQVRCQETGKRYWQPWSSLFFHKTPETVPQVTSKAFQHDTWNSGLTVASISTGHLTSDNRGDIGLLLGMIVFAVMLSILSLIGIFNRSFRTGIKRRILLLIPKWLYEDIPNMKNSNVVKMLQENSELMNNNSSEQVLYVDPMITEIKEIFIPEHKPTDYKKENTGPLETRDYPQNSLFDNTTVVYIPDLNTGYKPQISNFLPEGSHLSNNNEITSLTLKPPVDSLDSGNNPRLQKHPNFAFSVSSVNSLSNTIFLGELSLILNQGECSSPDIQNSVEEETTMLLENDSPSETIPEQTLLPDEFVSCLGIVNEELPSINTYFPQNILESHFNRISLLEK
Method: FIG. 2 is a graph showing the results of efficacy screening of peptides designed from the IL-23 receptor. HL-60 human monocytes were pre-incubated for 30 minutes with the particular peptides (1 μM) and stimulated for 15 minutes with IL-23 (10 ng/ml). Western Blot analysis of phosphorylated-STAT3 and total STAT3 was performed on cell lysates. Immunoblot densitometry was measured using ImagePro4+ software. […] FIGS. 3A and 3B are graphs showing inhibition of IL-23-induced STAT3 phosphorylation and TNFα generation. […] Western Blot analysis was performed on cell lysates, and immunoblot densitometry was measured using ImagePro4+ software. […] TNFα production was quantified by ELISA 24 hours after stimulation with IL-23 using the Quantikine ELISA Kit (R&D systems). […] D-peptides 2303, 2305, 2307 and 2309 (1 μM) inhibit IL-23-induced STAT3 phosphorylation in phorbol 12-myristate 13-acetate (PMA)-activated human monocytes (HL-60) (FIG. 2).

[3] = tested on: PMA-induced dermatitis (ear); type: in vivo, CD-1 mice
Source text: FIGS. 10A and 10B are a series of images and a graph showing efficacy of topical anti-IL-23R peptides in treating PMA-induced dermatitis. PMA-induced dermatitis is often utilized as a model of chronic (and scaling) dermatitis, reminiscent of psoriatic dermatitis. […] FIG. 10B is a graph showing the differences in weight (mg) of ear punches with control ears untreated with PMA. […] FIGS. 11A to 11C are a series of images and graphs showing dose-response to topical administration of peptide 2309 in PMA-induced dermatitis. FIG. 11A is a photographic representation of dose-dependent effects of topical administration of peptide 2309 (mixed in PEG-400) on PMA-induced dermatitis in CD-1 mice. Concentrations of peptide 2309≧100 nM show significant efficacy.

[4] = molecular target: T1, IL-23 receptor; assay: IL-23-induced TNFα production in PMA-activated HL-60 monocytes (ELISA); type: cell-based; set-up: endogenous in cells; details: IL-23 10 ng/ml, ELISA 24 hours after stimulation, read-out: Emax, inhibition of IL-23-induced TNF formation
Method: FIGS. 3A and 3B are graphs showing inhibition of IL-23-induced STAT3 phosphorylation and TNFα generation. […] Western Blot analysis was performed on cell lysates, and immunoblot densitometry was measured using ImagePro4+ software. […] TNFα production was quantified by ELISA 24 hours after stimulation with IL-23 using the Quantikine ELISA Kit (R&D systems).
D-peptides 2303, 2305, 2307 and 2309 (1 μM) inhibit IL-23-induced STAT3 phosphorylation in phorbol 12-myristate 13-acetate (PMA)-activated human monocytes (HL-60) (FIG. 2).

CSCC[C@@H](N)C(=O)N[C@H](CCC(=O)O)C(=O)N[C@H](CCC(=O)O)C(=O)N[C@H](CO)C(=O)N[C@H](CCCCN)C(=O)N[C@H](CCC(N)=O)C(=O)N[C@H](CC(C)C)C(=O)N[C@H](CCC(N)=O)C(=O)N[C@H](CC(C)C)C(=O)O [Peptide 2309, MEESKQLQL] (HELM PEPTIDE1{[dM].[dE].[dE].[dS].[dK].[dQ].[dL].[dQ].[dL]}$$$$V2.0; N-terminus and C-terminus assumed)
redness and ear weight [1]: able to treat PMA-induced dermatitis as evidenced by a decrease in redness and ear weight | effect on IL-23-induced STAT3 phosphorylation [2]: demonstrable efficacy; also recorded: inhibit; also recorded: remained capable of inhibiting | EC50 ([3]; mouse, in vivo): ~0.05 µM | transdermal penetration ([3]; mouse, in vivo): effective transdermal penetration | PMA-induced edema (weight of ear punches) ([3]; topical dose-response (FIG. 11B)): dose-dependent reduction in PMA-induced edema | capillary leak (Evan's blue technique) ([3]; topical dose-response (FIG. 11C)): diminished capillary leak | concentrations showing significant efficacy ([3]; topical in PEG-400 (FIG. 11A)): ≥ 100 nM | Emax [4]: ~80%

— patent US20100190710A1, “IL-23 RECEPTOR ANTAGONISTS AND USES THEREOF” (Valorisation HSJ, Societe en Commandite, priority 2007, published 2010)
